Columns and labels:
IMP dehydrogenase = conditions: cited from earlier work
[1] = Oral administration in rats over four weeks (clinical pathology); assay type: in vivo; conditions: 180 mg/kg over four weeks
Excerpt: Furthermore, it is contemplated that treatment of a viral disease with Levovirin is predominantly based on the modulation of the Th1/Th2 balance towards a Th1 dominated response, and not predominantly based on a direct antiviral effect. The term “direct antiviral” effect or activity as used herein refers to an immediate effect or activity of a drug on viral assembly or replication. In contrast, a reduction of viral activity or replication that is at least in part mediated by one or more components of the immune system is not considered a “direct antiviral” effect or activity. Likewise, it should be appreciated that a relative reduction of the Th2 response during a treatment may be especially advantageous in diseases that are correlated with an increased Th2 response (e.g., HCV infection).

ten different viruses = conditions: compared with Ribavirin; cited from earlier work
[2] = preliminary toxicology studies; cited from earlier work

NC(=O)c1ncn([C@@H]2O[C@H](CO)[C@@H](O)[C@H]2O)n1 [Ribavirin, 1-β-D-ribofuranosyl-1,2,4-triazole-3-carboxamide]
inhibition of IMP dehydrogenase (IMP dehydrogenase): inhibitor of IMP dehydrogenase | clinical pathology after oral administration [1]: significant hemolytic anemia and leukopenia

NC(=O)c1ncn([C@H]2O[C@@H](CO)[C@H](O)[C@@H]2O)n1 [Levovirin]
clinical pathology after oral administration [1]: did not produce any observable clinical pathology

N=C(N)c1ncn([C@@H]2O[C@H](CO)[C@@H](O)[C@H]2O)n1 [Viramidine]
inhibition of IMP dehydrogenase (IMP dehydrogenase): inhibitor of IMP dehydrogenase | antiviral activity (ten different viruses): active in ten different viruses—comparable to Ribavirin | toxicity relative to Ribavirin [2]: less toxic than Ribavirin

— US6815542B2 (priority 2000, dated 2004)
